pIC50: −log10 of the molar value.
Legend:
hERG K+ channel = target: T1, hERG K+ channel (Homo sapiens, UniProt Q12809); assay: hERG channel inhibition assay (patch-clamp, CHOhERG cells); format: cell-based; conditions: for pIC50 / IC20: CHOhERG cells, whole-cell patch-clamp; for IC20: human, CHO cells stably expressing hERG (CHOhERG); for hERG IC20/TLR7 IC50 / hERG IC20/TLR8 IC50 / hERG IC20/TLR9 IC50: safety ratio
T1 construct: expressed in transfected cells; host or cells: CHO (Chinese hamster ovary), CHOhERG
Experimental: The hERG K^+ channels were cloned in humans and stably expressed in a CHO (Chinese hamster ovary) cell line. CHOhERG cells were used for patch-clamp (voltage-clamp, whole-cell) experiments. Cells were stimulated by a voltage pattern to activate hERG channels and conduct IKhERG currents (rapid delayed outward rectifier potassium current of the hERG channel). After the cells were stabilized for a few minutes, the amplitude and kinetics of IKhERG were recorded at a stimulation frequency of 0.1 Hz, (6 bpm). Thereafter, the test compound was added to the preparation at increasing concentrations. For each concentration, an attempt was made to reach a steady-state effect, usually, this was achieved within 3-10 min at which time the next highest concentration was applied. The amplitude and kinetics of IKhERG are recorded in each concentration of the drug which were compared to the control values (taken as 100%). (references: Redfern W S, Carlsson L, Davis A S, Lynch W G, MacKenzie I, Palethorpe S, Siegl P K, Strang I, Sullivan A T, Wallis R, Camm A J, Hammond T G. 2003; Relationships between preclinical cardiac electrophysiology, clinical QT interval prolongation and torsade de pointes for a broad range of drugs: evidence for a provisional safety margin in drug development. Cardiovasc. Res. 58:32-45, Sanguinetti MC, Tristani-Firouzi M. 2006; hERG potassium channels and cardiac arrhythmia. Nature 440:463-469, Webster R, Leishman D, Walker D. 2002; Towards a drug concentration effect relationship for QT prolongation and torsades de pointes. Curr. Opin. Drug Discov. Devel. 5:116-26).

human TLR9 = target: T2, human TLR9 (Homo sapiens, UniProt Q9NR96); assay: HEK293-Blue-hTLR-9 cells assay; format: cell-based; conditions: HEK293-Blue-hTLR9 cells, ODN2006 stimulation, 20 hrs, SEAP reporter; read-out: HEK/hTLR9 IC50
T2 construct: host or cells: HEK293 (HEK-Blue hTLR9)
T2 sequence (Q9NR96 26-1032): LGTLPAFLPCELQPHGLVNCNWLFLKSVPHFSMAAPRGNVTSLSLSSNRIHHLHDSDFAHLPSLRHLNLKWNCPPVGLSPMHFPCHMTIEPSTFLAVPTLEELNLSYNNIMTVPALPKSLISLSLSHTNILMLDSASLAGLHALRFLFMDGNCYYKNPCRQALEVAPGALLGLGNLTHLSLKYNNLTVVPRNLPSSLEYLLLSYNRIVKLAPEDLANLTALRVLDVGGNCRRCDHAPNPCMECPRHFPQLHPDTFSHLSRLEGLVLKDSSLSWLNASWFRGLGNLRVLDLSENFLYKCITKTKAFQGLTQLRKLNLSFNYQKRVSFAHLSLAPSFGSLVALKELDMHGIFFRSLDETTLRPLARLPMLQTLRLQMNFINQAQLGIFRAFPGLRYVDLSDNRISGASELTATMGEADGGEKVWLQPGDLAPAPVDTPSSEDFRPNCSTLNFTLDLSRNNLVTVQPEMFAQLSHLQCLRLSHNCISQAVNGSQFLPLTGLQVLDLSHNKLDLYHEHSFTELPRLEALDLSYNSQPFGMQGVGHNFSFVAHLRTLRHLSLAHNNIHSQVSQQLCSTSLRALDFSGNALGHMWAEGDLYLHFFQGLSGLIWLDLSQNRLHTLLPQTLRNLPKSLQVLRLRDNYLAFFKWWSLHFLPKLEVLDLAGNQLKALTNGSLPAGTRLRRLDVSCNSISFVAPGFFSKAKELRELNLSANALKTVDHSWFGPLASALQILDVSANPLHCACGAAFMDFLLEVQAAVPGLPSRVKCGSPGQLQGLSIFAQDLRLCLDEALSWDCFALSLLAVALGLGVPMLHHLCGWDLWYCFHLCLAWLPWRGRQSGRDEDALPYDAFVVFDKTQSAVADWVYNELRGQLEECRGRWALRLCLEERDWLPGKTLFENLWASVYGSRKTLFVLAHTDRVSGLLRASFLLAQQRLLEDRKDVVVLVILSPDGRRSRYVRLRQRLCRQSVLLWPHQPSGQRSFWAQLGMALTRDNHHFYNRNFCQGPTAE
From the text: A stable HEK293-Blue-hTLR-9 cell line was purchased from InvivoGen (Cat. #: hkb-htlr9, San Diego, California, USA). These cells were originally designed for studying the stimulation of human TLR9 by monitoring the activation of NF-κB. A SEAP (secreted embryonic alkaline phosphatase) reporter gene was placed under the control of the IFN-β minimal promoter fused to five NF-κB and AP-1-binding sites. The SEAP was induced by activating NF-κB and AP-1 via stimulating HEK-Blue hTLR9 cells with TLR9 ligands. Therefore the reporter expression was declined by TLR9 antagonist under the stimulation of a ligand, such as ODN2006 (Cat. #: tlrl-2006-1, Invivogen, San Diego, California, USA), for incubation of 20 hrs. The cell culture supernatant SEAP reporter activity was determined using QUANTI-Blue™ kit (Cat. #: rep-qb1, Invivogen, San Diego, California, USA) at a wavelength of 640 nm, a detection medium that turns purple or blue in the presence of alkaline phosphatase.
HEK293-Blue-hTLR9 cells were incubated at a density of 250,000˜450,000 cells/mL in a volume of 170 μL in a 96-well plate in Dulbecco's Modified Eagle's medium (DMEM) containing 4.5 g/L glucose, 50 U/mL penicillin, […], 2 mM L-glutamine, 10% (v/v) heat-inactivated fetal bovine serum with addition of 20 μL test compound in a serial dilution in the presence of final DMSO at 1% and 10 μL of 20 uM ODN2006 in above DMEM, perform incubation under 37° C. in a CO2 incubator for 20 hrs. Then 20 μL of the supernatant from each well was incubated with 180 μL Quanti-blue substrate solution at 37° C. for 2 h and the absorbance was read at 620˜655 nm using a spectrophotometer. The signaling pathway that TLR9 activation leads to downstream NF-κB activation has been widely accepted, and therefore similar reporter assay was modified for evaluating TLR9 antagonist.

T1 sequence (Q12809 whole entry): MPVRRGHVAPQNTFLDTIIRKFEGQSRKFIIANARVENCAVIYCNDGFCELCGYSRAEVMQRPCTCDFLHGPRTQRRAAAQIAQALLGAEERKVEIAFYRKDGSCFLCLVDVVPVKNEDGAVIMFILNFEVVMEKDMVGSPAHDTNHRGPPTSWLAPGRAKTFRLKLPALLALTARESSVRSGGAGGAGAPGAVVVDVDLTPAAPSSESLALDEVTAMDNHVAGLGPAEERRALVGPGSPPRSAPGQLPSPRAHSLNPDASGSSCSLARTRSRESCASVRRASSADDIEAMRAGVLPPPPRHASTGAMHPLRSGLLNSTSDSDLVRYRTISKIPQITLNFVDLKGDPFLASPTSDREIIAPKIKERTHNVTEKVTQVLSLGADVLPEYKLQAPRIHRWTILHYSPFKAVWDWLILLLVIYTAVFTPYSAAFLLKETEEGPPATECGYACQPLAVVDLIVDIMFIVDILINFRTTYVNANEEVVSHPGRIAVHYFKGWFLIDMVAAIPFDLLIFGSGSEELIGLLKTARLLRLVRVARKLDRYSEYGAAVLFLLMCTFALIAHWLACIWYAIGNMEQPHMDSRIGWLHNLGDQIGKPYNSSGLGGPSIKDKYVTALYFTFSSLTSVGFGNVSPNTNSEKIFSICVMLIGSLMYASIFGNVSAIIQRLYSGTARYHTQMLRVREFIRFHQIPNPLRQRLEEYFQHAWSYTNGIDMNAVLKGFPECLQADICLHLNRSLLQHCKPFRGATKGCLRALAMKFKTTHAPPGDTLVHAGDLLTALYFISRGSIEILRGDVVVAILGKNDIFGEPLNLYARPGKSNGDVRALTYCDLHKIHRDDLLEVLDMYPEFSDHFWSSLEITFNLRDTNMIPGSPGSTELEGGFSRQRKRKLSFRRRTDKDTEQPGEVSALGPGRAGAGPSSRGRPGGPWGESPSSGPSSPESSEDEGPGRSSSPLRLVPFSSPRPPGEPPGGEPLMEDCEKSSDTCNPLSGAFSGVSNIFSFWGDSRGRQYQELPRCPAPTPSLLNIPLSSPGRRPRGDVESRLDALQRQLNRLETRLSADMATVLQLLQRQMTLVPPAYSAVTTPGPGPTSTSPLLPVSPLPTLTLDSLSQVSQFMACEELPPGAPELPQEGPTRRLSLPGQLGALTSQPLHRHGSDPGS

pIC50 (human TLR9)	SMILES	pIC50 (hERG K+ channel)	IC20 (hERG K+ channel)	hERG IC20/TLR7 IC50 (hERG K+ channel)	hERG IC20/TLR8 IC50 (hERG K+ channel)	hERG IC20/TLR9 IC50 (hERG K+ channel)
7.07	C[C@@H]1CN(c2ccc(C#N)c3ncccc23)C[C@@H]2C[C@H](Nc3ccc(C[C@@H]4CNCCO4)cc3)CCN21 [Example 21, 5-[(4R,8R,9aS)-4-methyl-8-[4-[[(2R)-morpholin-2-yl]methyl]anilino]-1,3,4,6,7,8,9,9a-octahydropyrido[1,2-a]pyrazin-2-yl]quinoline-8-carbonitrile]	< 4.70	> 10 µM	>500	>185.2	>116.3
7.24	[2H]c1ccc2c(N3C[C@@H]4C[C@H](Nc5ccc(C[C@H]6CNCCO6)cc5)CCN4[C@H](C)C3)ccc(C#N)c2n1 [Example 34, 5-[(4R,8R,9aS)-4-methyl-8-[4-[[(2S)-morpholin-2-yl]methyl]anilino]-1,3,4,6,7,8,9,9a-octahydropyrido[1,2-a]pyrazin-2-yl]-2-deuterio-quinoline-8-carbonitrile]	< 4.70	> 10 µM	>212.7	>250	>175.4
7.30	C[C@@H]1CN(c2ccc(C#N)c3ncccc23)C[C@@H]2C[C@H](Nc3ccc([C@H]4CNCCO4)cc3)CCN21 [Example 20, 5-[(4R,8R,9aS)-4-methyl-8-[4-[(2S)-morpholin-2-yl]anilino]-1,3,4,6,7,8,9,9a-octahydropyrido[1,2-a]pyrazin-2-yl]quinoline-8-carbonitrile]	< 4.70	> 10 µM	>769.2	>200	>200
7.05	C[C@@H]1CN(c2ccc(C#N)c3ncccc23)C[C@@H]2C[C@@H](Oc3ccc(N4CCNCC4)cn3)CCN21 [Example 11, 5-[(4R,8S,9aS)-4-methyl-8-[(5-piperazin-1-yl-2-pyridyl)oxy]-1,3,4,6,7,8,9,9a-octahydropyrido[1,2-a]pyrazin-2-yl]quinoline-8-carbonitrile]	< 4.70	> 10 µM	>217.4	>666.6	>111.1
7.48	CO[C@H]1CN(c2ccc(C3CN([C@@H]4CCN5[C@@H](C4)CN(c4ccc(C#N)c6ncccc46)C[C@H]5C)C3)cc2)C[C@H]1N [Example 32, 5-[(4R,8R,9aS)-8-[3-[4-[(3R,4S)-3-amino-4-methoxy-pyrrolidin-1-yl]phenyl]azetidin-1-yl]-4-methyl-1,3,4,6,7,8,9,9a-octahydropyrido[1,2-a]pyrazin-2-yl]quinoline-8-carbonitrile]					
7.06	CO[C@H]1CN(c2ccc([C@@H]3CCN4[C@@H](C3)CN(c3ccc(C#N)c5ncccc35)C[C@H]4C)cn2)C[C@@H]1N [Example 6, 5-[(4R,8R,9aS)-8-[6-[(3S,4S)-3-amino-4-methoxy-pyrrolidin-1-yl]-3-pyridyl]-4-methyl-1,3,4,6,7,8,9,9a-octahydropyrido[1,2-a]pyrazin-2-yl]quinoline-8-carbonitrile]	< 4.70	9.2 µM	224.4	195.7	105.7
7.09	C[C@@H]1CN(c2ccc(C#N)c3ncccc23)C[C@@H]2C[C@H](c3ccc(N4C[C@@H](N)[C@@H](F)C4)nc3)CCN21 [Example 19, 5-[(4R,8R,9aS)-8-[6-[(3R,4S)-3-amino-4-fluoro-pyrrolidin-1-yl]-3-pyridyl]-4-methyl-1,3,4,6,7,8,9,9a-octahydropyrido[1,2-a]pyrazin-2-yl]quinoline-8-carbonitrile]					
> 7.49	C[C@@H]1CN(c2ccc(C#N)c3ncccc23)C[C@@H]2C[C@H](N3CC(c4ccc(N5CCNCC5)cc4)C3)CCN21 [Example 9, 5-[(4R,8R,9aS)-4-methyl-8-[3-(4-piperazin-1-ylphenyl)azetidin-1-yl]-1,3,4,6,7,8,9,9a-octahydropyrido[1,2-a]pyrazin-2-yl]quinoline-8-carbonitrile]	< 4.70	> 10 µM	>370.4	>277.8	>312.5
7.11	C[C@@H]1CN(c2ccc(C#N)c3ncccc23)C[C@@H]2CC(c3ccc(C[C@@H]4CNCCO4)cc3)CCN21 (stereo in doubt) [Example 25, 5-[(4R,8R,9aS)-4-methyl-8-[4-[[(2R)-morpholin-2-yl]methyl]phenyl]-1,3,4,6,7,8,9,9a-octahydropyrido[1,2-a]pyrazin-2-yl]quinoline-8-carbonitrile]					
7.08	[2H]c1ccc2c(N3C[C@@H]4C[C@H](Nc5ccc(C[C@@H]6CNCCO6)cc5)CCN4[C@H](C)C3)ccc(C#N)c2n1 [Example 22, 5-[(4R,8R,9aS)-4-methyl-8-[4-[[(2R)-morpholin-2-yl]methyl]anilino]-1,3,4,6,7,8,9,9a-octahydropyrido[1,2-a]pyrazin-2-yl]-2-deuterio-quinoline-8-carbonitrile]					
7.07	C[C@@H]1CN(c2ccc(C#N)c3ncccc23)C[C@@H]2C[C@H](c3ccc(N4CCNCC4)nc3)CCN21 [Example 4, 5-[(4R,8R,9aS)-4-methyl-8-(6-piperazin-1-yl-3-pyridyl)-1,3,4,6,7,8,9,9a-octahydropyrido[1,2-a]pyrazin-2-yl]quinoline-8-carbonitrile]					
> 7.49	C[C@@H]1CN(c2ccc(C#N)c3ncccc23)C[C@@H]2C[C@@H](NCc3ccc(N4CCNCC4)cc3)CCN21 [Example 17, 5-[(4R,8S,9aS)-4-methyl-8-[(4-piperazin-1-ylphenyl)methylamino]-1,3,4,6,7,8,9,9a-octahydropyrido[1,2-a]pyrazin-2-yl]quinoline-8-carbonitrile]					

Source: patent US12421229B2, “Hydropyrido[1,2-α]pyrazine compounds for the treatment of autoimmune disease” (Hoffmann-La Roche Inc., priority 2019, dated 2025)
